In paper PMC6155188 (2017):

Experiments:
[1] = test system: GP1 (DNA, aptamer) GGAGGCTCTCGGGACGACGGGAGCATCATTCTGAGTGTTATGTGGATTGATACGTCTGGTCGTCCCGATGCTGCAATCGTAA; test: structure-switching fluorescence titration; settings: 500 mM NaCl, 10 mM MgCl2, 5 mM KCl; 20 mM HEPES pH 7.4, room temperature; dabcyl-cDNA displaced; ligand stocks up to 200 mM
[2] = test system: GP2 (DNA, aptamer) GGAGGCTCTCGGGACGACGGTGTGGCCCGTGGTGTCACTAATGAAGGGATTCATTTCAGTCGTCCCGATGCTGCAATCGTAA; test: structure-switching fluorescence titration; settings: 500 mM NaCl, 10 mM MgCl2, 5 mM KCl; 20 mM HEPES pH 7.4, room temperature; dabcyl-cDNA displaced; ligand stocks up to 200 mM
[3] = test system: GP1 (DNA, aptamer) GGAGGCTCTCGGGACGACGGGAGCATCATTCTGAGTGTTATGTGGATTGATACGTCTGGTCGTCCCGATGCTGCAATCGTAA; test: structure-switching fluorescence titration, Kd = Kd,eff1/Kd,eff2; settings: 500 mM NaCl, 10 mM MgCl2, 5 mM KCl; 20 mM HEPES pH 7.4, ~23 °C; dabcyl-cDNA displaced (sequence not in text); 50 nM each strand
[4] = test system: GP2 (DNA, aptamer) GGAGGCTCTCGGGACGACGGTGTGGCCCGTGGTGTCACTAATGAAGGGATTCATTTCAGTCGTCCCGATGCTGCAATCGTAA; test: as above; settings: 500 mM NaCl, 10 mM MgCl2, 5 mM KCl; 20 mM HEPES pH 7.4, ~23 °C; dabcyl-cDNA displaced (sequence not in text); 50 nM each strand

In the case of `COC(=O)C1=CO[C@@H](O)[C@@H]2C(CO)=CC[C@H]12`, the binding [1] is reported as “no” and the binding [2] is reported as “no”.
For `COC(=O)C1=CO[C@@H](O[C@@H]2O[C@H](CO)[C@@H](O)[C@H](O)[C@H]2O)[C@@H]2C(CO)=CC[C@H]12`, the Kd [3] was ~ 6.1 μM and the Kd [4] was ~ 2.0 μM.
`OC[C@H]1OC(O)[C@H](O)[C@@H](O)[C@@H]1O` (stereo partly drawn) was tested, and the binding [1] was “no” and the binding [2] was “no”.
